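Step 1: Grow cells in 96-well plates. Step 2: Expose to compound for 48 hours at 5 concentrations. Step 3: Interpolate endpoints linearly; if unreached, use highest concentration. GI50: concentration for 50% inhibition of growth. At the TGI there is no net growth.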
What was measured:
Test in all cases: NCI tumour cell line growth inhibition, 48 h
786-0 renal = tested on: 786-0 renal
A498 renal = tested on: A498 renal
A549 NSCLC = tested on: A549 NSCLC
ACHN renal = tested on: ACHN renal
CAKI-1 renal = tested on: CAKI-1 renal
CCRF-CEM leukemia = tested on: CCRF-CEM leukemia
COLO 205 colon = tested on: COLO 205 colon
DU-145 prostate = tested on: DU-145 prostate
HCC-2998 colon = tested on: HCC-2998 colon
HCT-15 colon = tested on: HCT-15 colon
HL-60(TB) leukemia = tested on: HL-60(TB) leukemia
HOP-62 NSCLC = tested on: HOP-62 NSCLC
HS 578T breast = tested on: HS 578T breast
HT29 colon = tested on: HT29 colon
IGROV1 ovarian = tested on: IGROV1 ovarian
K-562 leukemia = tested on: K-562 leukemia
LOX IMVI melanoma = tested on: LOX IMVI melanoma
M14 melanoma = tested on: M14 melanoma
MALME-3M melanoma = tested on: MALME-3M melanoma
MDA-MB-231 breast = tested on: MDA-MB-231 breast
MOLT-4 leukemia = tested on: MOLT-4 leukemia
NCI-H226 lung = tested on: NCI-H226 lung
NCI-H23 lung = tested on: NCI-H23 lung
NCI-H460 lung = tested on: NCI-H460 lung
NCI-H522 lung = tested on: NCI-H522 lung
NCI/ADR-RES ovarian = tested on: NCI/ADR-RES ovarian
OVCAR-3 ovarian = tested on: OVCAR-3 ovarian
OVCAR-4 ovarian = tested on: OVCAR-4 ovarian
OVCAR-5 ovarian = tested on: OVCAR-5 ovarian
OVCAR-8 ovarian = tested on: OVCAR-8 ovarian
PC-3 prostate = tested on: PC-3 prostate
RPMI-8226 leukemia = tested on: RPMI-8226 leukemia
RXF 393 renal = tested on: RXF 393 renal
SF-268 CNS = tested on: SF-268 CNS
SF-539 CNS = tested on: SF-539 CNS
SK-MEL-2 melanoma = tested on: SK-MEL-2 melanoma
SK-MEL-28 melanoma = tested on: SK-MEL-28 melanoma
SK-MEL-5 melanoma = tested on: SK-MEL-5 melanoma
SK-OV-3 ovarian = tested on: SK-OV-3 ovarian
SN12C renal = tested on: SN12C renal
SNB-19 CNS = tested on: SNB-19 CNS
SR leukemia = tested on: SR leukemia
T-47D breast = tested on: T-47D breast
TK-10 renal = tested on: TK-10 renal
U251 CNS = tested on: U251 CNS
UACC-257 melanoma = tested on: UACC-257 melanoma
UACC-62 melanoma = tested on: UACC-62 melanoma
UO-31 renal = tested on: UO-31 renal

COc1cc(-c2cc(/C=C/C(=O)c3ccc4c(c3)OCO4)[nH]n2)cc(OC)c1OC
GI50 (786-0 renal): 2.33 µM
TGI (786-0 renal): 5.82 µM
GI50 (A498 renal): 2.76 µM
TGI (A498 renal): 15.4 µM
GI50 (A549 NSCLC): 4.32 µM
TGI (A549 NSCLC): > 100 µM
GI50 (ACHN renal): 1.88 µM
TGI (ACHN renal): 3.71 µM
GI50 (CAKI-1 renal): 5.51 µM
TGI (CAKI-1 renal): > 100 µM
GI50 (CCRF-CEM leukemia): 1.57 µM
TGI (CCRF-CEM leukemia): 5.96 µM
GI50 (COLO 205 colon): 1.87 µM
TGI (COLO 205 colon): 3.85 µM
GI50 (DU-145 prostate): 2.72 µM
TGI (DU-145 prostate): 9.56 µM
GI50 (HCC-2998 colon): 1.95 µM
TGI (HCC-2998 colon): 3.54 µM
GI50 (HCT-15 colon): 2.12 µM
TGI (HCT-15 colon): 7.19 µM
GI50 (HL-60(TB) leukemia): 2.17 µM
TGI (HL-60(TB) leukemia): 6.36 µM
GI50 (HOP-62 NSCLC): 2.18 µM
TGI (HOP-62 NSCLC): 5.17 µM
GI50 (HS 578T breast): 3.71 µM
TGI (HS 578T breast): 78.7 µM
GI50 (HT29 colon): 2.18 µM
TGI (HT29 colon): 4.55 µM
GI50 (IGROV1 ovarian): 5 µM
TGI (IGROV1 ovarian): 62.1 µM
GI50 (K-562 leukemia): 3.2 µM
TGI (K-562 leukemia): 9.81 µM
GI50 (LOX IMVI melanoma): 1.82 µM
TGI (LOX IMVI melanoma): 3.78 µM
GI50 (M14 melanoma): 3.86 µM
TGI (M14 melanoma): > 100 µM
GI50 (MALME-3M melanoma): 4.42 µM
TGI (MALME-3M melanoma): 20.8 µM
GI50 (MDA-MB-231 breast): 3.5 µM
TGI (MDA-MB-231 breast): > 100 µM
GI50 (MOLT-4 leukemia): 2.98 µM
TGI (MOLT-4 leukemia): 9.15 µM
GI50 (NCI-H226 lung): 3.31 µM
TGI (NCI-H226 lung): > 100 µM
GI50 (NCI-H23 lung): 20.2 µM
TGI (NCI-H23 lung): > 100 µM
GI50 (NCI-H460 lung): 2.12 µM
TGI (NCI-H460 lung): 5.1 µM
GI50 (NCI-H522 lung): 1.03 µM
TGI (NCI-H522 lung): 2.35 µM
GI50 (NCI/ADR-RES ovarian): 4.23 µM
TGI (NCI/ADR-RES ovarian): > 100 µM
GI50 (OVCAR-3 ovarian): 3.38 µM
TGI (OVCAR-3 ovarian): 12.3 µM
GI50 (OVCAR-4 ovarian): 3.8 µM
TGI (OVCAR-4 ovarian): > 100 µM
GI50 (OVCAR-5 ovarian): 3.37 µM
TGI (OVCAR-5 ovarian): 93.5 µM
GI50 (OVCAR-8 ovarian): 2.85 µM
TGI (OVCAR-8 ovarian): 11.1 µM
GI50 (PC-3 prostate): 2.81 µM
TGI (PC-3 prostate): 13.7 µM
GI50 (RPMI-8226 leukemia): 0.51 µM
TGI (RPMI-8226 leukemia): 2.94 µM
GI50 (RXF 393 renal): 1.48 µM
TGI (RXF 393 renal): 2.87 µM
GI50 (SF-268 CNS): 2.97 µM
TGI (SF-268 CNS): 14.5 µM
GI50 (SF-539 CNS): 2.07 µM
TGI (SF-539 CNS): 5.73 µM
GI50 (SK-MEL-2 melanoma): 10.3 µM
TGI (SK-MEL-2 melanoma): 28.9 µM
GI50 (SK-MEL-28 melanoma): 2.48 µM
TGI (SK-MEL-28 melanoma): 7.34 µM
GI50 (SK-MEL-5 melanoma): 4.51 µM
TGI (SK-MEL-5 melanoma): > 100 µM
GI50 (SK-OV-3 ovarian): 5.76 µM
TGI (SK-OV-3 ovarian): 26.1 µM
GI50 (SN12C renal): 3.94 µM
TGI (SN12C renal): > 100 µM
GI50 (SNB-19 CNS): 4.3 µM
TGI (SNB-19 CNS): > 100 µM
GI50 (SR leukemia): 0.552 µM
TGI (SR leukemia): > 100 µM
GI50 (T-47D breast): 2.51 µM
TGI (T-47D breast): 17 µM
GI50 (TK-10 renal): 2.33 µM
TGI (TK-10 renal): 5.73 µM
GI50 (U251 CNS): 2.01 µM
TGI (U251 CNS): 5.45 µM
GI50 (UACC-257 melanoma): 2.46 µM
TGI (UACC-257 melanoma): 40.3 µM
GI50 (UACC-62 melanoma): 4.67 µM
TGI (UACC-62 melanoma): > 100 µM
GI50 (UO-31 renal): 1.91 µM
TGI (UO-31 renal): 5.44 µM

Source: PubChem BioAssay (NCI)
